Experimental data from article PMC12336439 (Archiv Der Pharmazie, 2025).
Marks after values point to notes of the source that are not given here.

Legend:
Type in all cases: binding
USP7 = molecular target: T1, USP7 (Homo sapiens, UniProt Q93009); test: Differential scanning fluorimetry (DSF), melting temperature shift of USP7; conditions: 8 µM protein, 250 µM compound (1:31.25)
T1 construct: USP7 catalytic domain (USP7CD) (208‐560); made in house
Source text: The influence of the synthesized compounds on the melting temperature (T m) of USP7 and its mutant USP7asoc (active site only cysteine) was investigated by DSF. USP7asoc only retains the catalytic Cys223 while all the other six cysteines are mutated to serine. DSF was selected for initial assessment since it is an efficient and rapid primary screening method readily available to our lab.
An important consideration when assessing covalent inhibitors is the time dependence of covalent target occupancy and thus potency, which is determined by the reaction kinetics of the covalent binding event. To allow for drawing conclusions on compounds with slower reaction kinetics, incubation times of 30 min, 4 h, and 24 h at 20°C were chosen for the DSF screen with USP7 (Table 1 and Figures 2 and 3). The threshold at which compounds were considered (de‐)stabilizers was defined at 0.5°C. In parallel, the intrinsic reactivity of a set of representative compounds was evaluated in a glutathione reactivity assay. […] Data obtained from the GSH reactivity studies are shown in Supporting Information S2: Table S2.1 and Figures S2.1–2.3.
The melting temperatures of USP7 and USP7asoc in the presence or absence of fragments were determined by DSF on a Qiagen Rotor‐Q Model‐5‐Plex HRM real‐time PCR instrument (Qiagen, Hilden, Germany). SYPRO Orange (Life Technologies Corporation, Eugene, OR, USA) was used as a fluorescent dye at a final concentration of 5x. The protein concentration was 8 µM, and the final compound concentration was 250 µM, corresponding to a protein‐to‐compound ratio of 1:31.25. All compounds were dissolved in dimethyl sulfoxide (DMSO) and the proteins in Tris buffer (25 mM Tris pH 8.0, 150 mM NaCl, 5 mM TCEP, 5% (v/v) DMSO). All measurements were performed after 30 min, 4 h, and 24 h of incubation and at least in triplicate. DSF experiments were carried out with a constant heating rate of 270°C/h. The temperature was ramped from 28°C to 60°C–70°C with excitation and emission filters set at 470 nm and 610 nm, respectively. The melting temperatures (T m) of USP7 and USP7asoc were determined from the maxima of the first derivatives of the melting curves in OriginPro2020 (OriginLab, Northampton, MA, USA). The ∆T m was calculated by subtraction of the T m of the protein sample with pure DMSO from the T m of the protein sample mixed with compound. Error propagation was used to average multiple runs for a compound. A compound was considered to be a hit if the shift in the ∆T m was at least 0.50°C [55].

USP7asoc = molecular target: T2, USP7asoc (Homo sapiens, UniProt Q93009, C300S/C315S/C334S/C478S/C488S/C510S); test: Intact protein MS (UHPLC-ESI-MS), covalent modification of USP7asoc; conditions: 24 h incubation at 20°C, protein-to-compound ratio 1:31.25
T2 construct: (208‐560, C300/315/334/448/478/510S); made in house
Experimental: The DSF results described above were validated by UHPLC‐ESI‐MS to verify possible covalent binding through a corresponding mass shift. Intact protein MS is an important screening method in irreversible‐covalent hit identification and is especially suitable for covalent fragment‐based drug discovery (FBDD). It allows for the identification of covalent binders by detecting covalent protein‐compound adducts, thus making use of the stability of the covalent bond. USP7 was prepared in Tris buffer (25 mM Tris pH 8.0, 150 mM NaCl, 5 mM TCEP) with a protein‐to‐compound ratio of 1:31.25 and 5% (v/v) DMSO. The protein‐compound mixtures were all incubated at 20°C for 24 h on a rotating shaker. The analysis of intact protein mass was carried out using UHPLC‐ESI‐MS measurements, with data acquisition and data analysis as previously described.

[1] = molecular target: T3, USP7asoc (active site only cysteine) (Homo sapiens, UniProt Q93009, C300S/C315S/C334S/C478S/C488S/C510S); test: Differential scanning fluorimetry (DSF), melting temperature shift of USP7asoc mutant; conditions: for ∆T m ± SD USP7asoc: 8 µM protein, 250 µM compound (1:31.25)
T3 construct: (208‐560, C300/315/334/448/478/510S); made in house
Experimental: USP7asoc only retains the catalytic Cys223 while all the other six cysteines are mutated to serine. DSF was selected for initial assessment since it is an efficient and rapid primary screening method readily available to our lab. […] An important consideration when assessing covalent inhibitors is the time dependence of covalent target occupancy and thus potency, which is determined by the reaction kinetics of the covalent binding event. To allow for drawing conclusions on compounds with slower reaction kinetics, incubation times of 30 min, 4 h, and 24 h at 20°C were chosen for the DSF screen with USP7 (Table 1 and Figures 2 and 3). The threshold at which compounds were considered (de‐)stabilizers was defined at 0.5°C. In parallel, the intrinsic reactivity of a set of representative compounds was evaluated in a glutathione reactivity assay. […] The expression and purification of USP7 catalytic domain (USP7CD) (208‐560) and USP7asoc (active site only cysteine) by using a pET24a(+)_HLT_USP7 construct were performed as previously described. […] For the USP7asoc, six of the seven cysteines are mutated to serines (208‐560, C300/315/334/448/478/510S). All utilized protein sequences are depicted in Supporting Information S2: Table S.3.1. The melting temperatures of USP7 and USP7asoc in the presence or absence of fragments were determined by DSF on a Qiagen Rotor‐Q Model‐5‐Plex HRM real‐time PCR instrument (Qiagen, Hilden, Germany). SYPRO Orange (Life Technologies Corporation, Eugene, OR, USA) was used as a fluorescent dye at a final concentration of 5x. The protein concentration was 8 µM, and the final compound concentration was 250 µM, corresponding to a protein‐to‐compound ratio of 1:31.25. All compounds were dissolved in dimethyl sulfoxide (DMSO) and the proteins in Tris buffer (25 mM Tris pH 8.0, 150 mM NaCl, 5 mM TCEP, 5% (v/v) DMSO). All measurements were performed after 30 min, 4 h, and 24 h of incubation and at least in triplicate. DSF experiments were carried out with a constant heating rate of 270°C/h. The temperature was ramped from 28°C to 60°C–70°C with excitation and emission filters set at 470 nm and 610 nm, respectively. The melting temperatures (T m) of USP7 and USP7asoc were determined from the maxima of the first derivatives of the melting curves in OriginPro2020 (OriginLab, Northampton, MA, USA). The ∆T m was calculated by subtraction of the T m of the protein sample with pure DMSO from the T m of the protein sample mixed with compound. Error propagation was used to average multiple runs for a compound. A compound was considered to be a hit if the shift in the ∆T m was at least 0.50°C [55].

T2 sequence (Q93009 with tags, fused parts or gaps C300S/C315S/C334S/C478S/C488S/C510S): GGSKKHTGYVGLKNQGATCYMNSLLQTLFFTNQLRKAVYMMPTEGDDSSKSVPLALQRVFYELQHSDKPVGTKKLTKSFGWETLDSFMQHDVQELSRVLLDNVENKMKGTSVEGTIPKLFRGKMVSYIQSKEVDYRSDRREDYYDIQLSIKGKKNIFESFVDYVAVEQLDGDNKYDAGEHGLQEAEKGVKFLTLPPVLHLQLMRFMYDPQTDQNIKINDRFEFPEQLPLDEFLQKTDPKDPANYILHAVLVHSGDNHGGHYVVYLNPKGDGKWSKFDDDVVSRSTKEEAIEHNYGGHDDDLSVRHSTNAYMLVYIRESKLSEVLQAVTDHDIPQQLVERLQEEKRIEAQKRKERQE
T3 sequence (Q93009 with tags, fused parts or gaps C300S/C315S/C334S/C478S/C488S/C510S): as above
T1 sequence (Q93009 with tags, fused parts or gaps): as the sequence (Q93009 with tags, fused parts or gaps C300S/C315S/C334S/C478S/C488S/C510S) above, with S96C, S111C, S130C, S274C, S284C, S306C counted along it

SMILES	∆T m ± SD USP7 (USP7; 30 min incubation at 20°C)	∆T m ± SD USP7 (USP7; 4 h incubation at 20°C)	∆T m ± SD USP7 (USP7; 24 h incubation at 20°C)	∆T m ± SD USP7asoc ([1]; 30 min incubation at 20°C)	∆T m ± SD USP7asoc ([1]; 4 h incubation at 20°C)	∆T m ± SD USP7asoc ([1]; 24 h incubation at 20°C)	∆T m of small shoulder (second smaller peak) of the melting curve of USP7asoc ([1]; 24 h incubation, 250 µM compound)	protein species in deconvoluted mass spectrum of USP7asoc (USP7asoc)
Cn1ccc(-c2cccc3cnc(Nc4nc(F)ccc4[N+](=O)[O-])cc23)c1 [7b, N‐(6‐Fluoro‐3‐nitropyridin‐2‐yl)‐5‐(1‐methyl‐1H‐pyrrol‐3‐yl)isoquinolin‐3‐amine]	–0.10 ± 0.09 °C	0.00 ± 0 °C	0.00 ± 0 °C	0.05 ± 0.09 °C	0.45 ± 0.12 °C	0.38 ± 0.06 °C		unmodified protein species as a main peak for both USP7 and USP7asoc
CCCn1cc(-c2cccc3cnc(Nc4nc(F)ccc4[N+](=O)[O-])cc23)cn1 [7d, N‐(6‐Fluoro‐3‐nitropyridin‐2‐yl)‐5‐(1‐propyl‐1H‐pyrazol‐4‐yl)isoquinolin‐3‐amine]	–0.30 ± 0.06 °C	–0.18 ± 0.03 °C		0.00 ± 0 °C	0.03 ± 0.08 °C	0.35 ± 0.06 °C		single modified protein as the main signal
O=[N+]([O-])c1ccc(F)nc1Nc1cc2c(-c3ccc(-c4ccncc4)cc3)cccc2cn1 [7i, N‐(6‐Fluoro‐3‐nitropyridin‐2‐yl)‐5‐[4‐(pyridin‐4‐yl)phenyl]isoquinolin‐3‐amine]	–0.13 ± 0.09 °C	–0.40 ± 0.08 °C	–0.45 ± 0.09 °C	–0.30 ± 0.12 °C	–0.15 ± 0 °C	0.05 ± 0.17 °C		unmodified USP7 and USP7asoc as the main peak

Second part, led by results:

∆T m ± SD USP7 (USP7; 30 min incubation at 20°C)	∆T m ± SD USP7 (USP7; 4 h incubation at 20°C)	∆T m ± SD USP7 (USP7; 24 h incubation at 20°C)	∆T m ± SD USP7asoc ([1]; 30 min incubation at 20°C)	∆T m ± SD USP7asoc ([1]; 4 h incubation at 20°C)	∆T m ± SD USP7asoc ([1]; 24 h incubation at 20°C)	∆T m of small shoulder (second smaller peak) of the melting curve of USP7asoc ([1]; 24 h incubation, 250 µM compound)	SMILES	protein species in deconvoluted mass spectrum of USP7asoc (USP7asoc)
–0.45 ± 0.12 °C	–0.45 ± 0 °C		–0.25 ± 0.23 °C	0.20 ± 0.09 °C	0.23 ± 0.08 ^b °C		CCn1cc(-c2cccc3cnc(Nc4nc(F)ccc4[N+](=O)[O-])cc23)cn1 [7c, 5‐(1‐Ethyl‐1H‐pyrazol‐4‐yl)‐N‐(6‐fluoro‐3‐nitropyridin‐2‐yl)isoquinolin‐3‐amine]	mainly showed the attachment of a single molecule to USP7 and USP7asoc
–0.23 ± 0.06 °C	0.02 ± 0.03 °C		–0.35 ± 0.09 °C	–0.13 ± 0.04 °C	0.40 ± 0.09 ^b °C	about –5 °C	O=[N+]([O-])c1ccc(F)nc1Nc1cc2c(-c3cnn(C4CC4)c3)cccc2cn1 [7e, 5‐(1‐Cyclopropyl‐1H‐pyrazol‐4‐yl)‐N‐(6‐fluoro‐3‐nitropyridin‐2‐yl)isoquinolin‐3‐amine]	mono‐arylated USP7 and USP7asoc species as main peaks
